Consider two compounds from patent US10975118B2, “Crystalline dipeptides useful in the synthesis of elamipretide” (Stealth BioTherapeutics Corp., priority 2018, dated 2021).

Converted amounts (≈) assume the structure as drawn. Where a SMILES comes first, the peptide text is derived from it. [ ]: non-standard residue; d: D form. The star is where a group is joined. Dmt = Cc1cc(O)cc(C)c1C[C@H](N)C(=O)O; Boc = CC(C)(C)OC(=O)*

Holding throughout (assay type): physicochemical
The nature of series [1]: Preliminary single-solvent solubility, determined by HPLC (response curve). From the text:
Preliminary Single-Solvent Solubility of Compound I: […]

Series [2] can be described thus: Preliminary precipitation studies (MeOH/water). Particulars: aqueous with cosolvent or surfactant or cyclodextrin, Normal addition, 10 mL/g, 25° C. From the text:
Preliminary Precipitation Studies (MeOH/Water) of Compound I: […]

Series [3] is described as follows: In process precipitation results (MeOH/water). The conditions noted are these: aqueous with cosolvent or surfactant or cyclodextrin. From the text: In Process Precipitation Results (MeOH/Water) of Compound I: […]
The nature of series [4]: Stability and handling of the isolated zwitterionic form (statement). The conditions noted are these: solid isolated from CH3OH/H2O with Na2CO3. The method, then: Preparation of the Zwitterionic Form of Compound II
[drawing 5] • 1. The crude HCl salt is suspended in CH3OH/H2O (1/1, v/v) • 2. The suspension is heated to 45-50° C. • 3. After the clear solution is formed, an aqueous solution of Na2CO3 (1.2 eq.) is added. During the addition, the solid begins to precipitate. • 4. The suspension is stirred for 1 h at 45° C., and then cooled to 15° C. and stirred for an additional hour. • 5. The solid is isolated by filtration and dried to provide Compound II with high purity (99.4 area %) by HPLC.
Formation of zwitterionic compound led to high purity material that was stable, easily handled, and highly crystalline.

With `CC(C)(C)OC(=O)NCCCC[C@H](N)C(=O)N[C@@H](Cc1ccccc1)C(N)=O` [Compound I, L-Lys(Boc)-Phe-NH2], the solubility (commonly the concentration that dissolves in the medium under given conditions) in series [1] (organic solvent or mixture, solvent EtOH (SDAG-7)) was 155000 µg/mL (≈ 394 mM); in series [1] (organic solvent or mixture, solvent MeOAc), 18200 µg/mL (≈ 46.4 mM); in series [1] (organic solvent or mixture, solvent THF) it was 84500 µg/mL (≈ 215 mM); in series [1] (organic solvent or mixture, solvent iPrOAc) it was 5100 µg/mL (≈ 13 mM); in series [1] (solvent Water), 4100 µg/mL (≈ 10.4 mM); in series [2] (Experiment 1, MeOH/Water 1:3), 7000 µg/mL (≈ 17.8 mM). The solubility in series [2] (Experiment 2, MeOH/Water 1:5) was 5000 µg/mL (≈ 12.7 mM); in series [2] (Experiment 3, MeOH/Water 1:9), 3600 µg/mL (≈ 9.17 mM); in series [2] (Experiment 4, MeOH/Water 1:19), 2700 µg/mL (≈ 6.88 mM); in series [3] (Experiment 2447-41, MeOH/Water 1:9, 13 mL/g), 2500 µg/mL (≈ 6.37 mM); in series [3] (Experiment 2447-47, MeOH/Water 1:5, 10 mL/g), 4200 µg/mL (≈ 10.7 mM).
Regarding `Cc1cc(O)cc(C)c1C[C@H](NC(=O)[C@@H](CCCNC(=N)N)NC(=O)OC(C)(C)C)C(=O)O` [Compound II, Boc-D-Arg-DMT] (Boc-[dR]-[Dmt]-OH), the Stability of material result in series [4] was “stable”.
